Experimental data as given in patent US7572798B2, “Combi-molecules having signal transduction inhibitory properties and DNA damaging properties” (McGill University, priority 2001, dated 2009).
“And” between values parts separate entries of the source, which are not always exact repeats. Identical values can stand only once. One block for each compound: values may come before it.

Key:
A431 cells [1] = test: SRB growth inhibition assay in A431 cells; format: cell-based; conditions: Homo sapiens, A-431, 96 h, read-out: IC50 growth inhibition
EGFR [2] = target: T1, EGFR (Homo sapiens, UniProt P00533); test: EGFR TK ELISA with PGT substrate (competitive binding at the ATP site); format: biochemical; design: purchased BIOMOL (Plymouth Meeting); also a gift from Pfizer Inc
Protocol: The ability of the combi-molecules to block EGFR TK activity was determined by an ELISA assay using poly(L-glutamic acid-L-tyrosine, 4:1) PGT as a substrate and commercially available EGFR.
Nunc MaxiSorp 96-well plates were incubated overnight at 37° C. with 100μL per well of 0.25 mg/mL PGT in PBS. Excess PGT was removed and the plates were washed 3 times with Tween 20 (0.1%) in PBS. […] The compound was added and phosphorylation initiated by the addition of ATP (20 μM). After 8 min at room temperature with constant shaking, the reaction was terminated by the aspiration of the reaction mixture and by rinsing the plate 4 times with wash buffer (Tween 20 (0.1%) in PBS). […] Antibody was removed by aspiration, and the plates washed 4 times with wash buffer. The signals were developed by the addition of 50 μL per well of TMB peroxidase substrate (Kierkegaard and Perry Laboratories, Gaithersberg, Md.).
This assay is similar to the one previously described. Nunc MaxiSorp 96-well plates were incubated overnight at 37° C. with 100 μl/well of 25 ng/ml PGT in PBS. Excess PGT was removed and the plates were washed three times with wash buffer (Tween 20 (0.1%) in PBS). […] The compound was added and phosphorylation initiated by the addition of ATP (20 μM). After 8 min at room temperature with constant shaking, the reaction was terminated by aspirating the mixture and by rinsing the plates four times with wash buffer Tween 20 (0.1%) in PBS. […] Antibody was removed by aspiration, and the plate washed four times with wash buffer. The signals were developed by the addition of 50 μl/well of 3,3′,5,5′-tetramethylbenzidine (TMB) peroxidase substrate (Kierkegaard and Perry Laboratories, Gaithersberg, Md., USA).

[3] = target: T2, cytoplasmic domain of the insulin receptor β subunit (Homo sapiens, UniProt P06213); test: insulin receptor kinase ELISA; format: biochemical; conditions: 1-100 μM range
T2 construct: Baculovirus-expressed cytoplasmic domain of the insulin receptor β subunit; purchased Biomol Research laboratories Inc., USA; host or cells: Baculovirus expression
Protocol: (§1) Conditions for the c-src and insulin kinase assays were similar to those of the EGFR kinase assay, with the exception of the addition of 1 mM manganese chloride to the assay buffer, and a final ATP concentration of 100 μM. The reaction was terminated by the addition of 50 μl of a 250 mM solution of EDTA prior to aspiration.

human c-src = target: T3, human c-src (Homo sapiens, UniProt P12931); test: c-src kinase ELISA; format: biochemical; conditions: 1-100 μM range
T3 construct: purchased Upstate NY; host or cells: Baculovirus expression
Protocol: as §1

A431 cells [4] = test: Alkaline comet assay for DNA damage in A431 cells; conditions: for DNA damage (comet tail moment): A431, 30 min or 2 h exposure
Protocol: A431 cells were exposed to drugs for 30 min or 2 h, and harvested with trypsin-EDTA. The cells were subsequently collected by centrifugation and re-suspended in PBS. The resulting cell suspension was diluted to approximately 10^6 cells, and mixed with agarose (1%) in PBS at 37° C. in a 1:10 dilution. The gels were cast on Gelbond strips (Mandel Scientific, Guelph, Canada) using gel casting chambers, as previously described (32), then immediately placed into a lysis buffer [2.5 M NaCl, 0.1 M tetra-sodium EDTA, 10 mM tris-base, 1% (w/v) N-lauryl sarcosine, 10% (v/v) DMSO and 1% (v/v) Triton X-100]. After being kept on ice for 30 min, the gels were gently rinsed with distilled water and then immersed in a second lysis buffer [2.5 M NaCl, 0.1 M tetra-sodium EDTA, 10 mM tris-base], containing 1 mg/ml proteinase K for 60 min at 37° C. Thereafter, the gels were rinsed with distilled water, incubated in alkaline electrophoresis buffer for 30 min at 37° C., and electrophoresed at 300 mA for 60 min. The gels were subsequently rinsed with distilled water and placed into 1 M ammonium acetate for 30 min. They were further soaked in 100% ethanol for 2 h, dried overnight and subsequently stained with SYBR Gold ( 1/10000 dilution of stock supplied from Molecular Probes, OR) for 20 min. For evaluation of comets, DNA damage was assessed using the Tail Moment parameter (i.e. the product of the distance between the barycentres of the head and the tail of the comet. A minimum of 50 cell comets were analyzed for each sample using ALKOMET v3.1 software, and values are an average of tail moments for the entire cell population.
Cell suspensions were diluted to approximately 10^6 cells, and mixed with agarose (1%) in PBS at 37° C. in a 1:10 dilution. The gels were cast on Gelbond strips (Mandel Scientific, Guelph, Canada) using gel casting chambers, as previously described (31), and then immediately placed in a lysis buffer [2.5 M NaCl, 0.1 M tetra-sodium EDTA, 10 mM Tris-base, 1% (w/v) N-lauryl sarcosine, 10% (v/v) DMSO, and 1% (v/v) Triton X-100, pH 10.0]. After being kept on ice for 30 min, the gels were gently rinsed with distilled water and immersed in a second lysis buffer (2.5 M NaCl, 0.1 M tetrasodium EDTA, 10 mM Tris-base) containing 1 mg/ml proteinase K for 60 min at 37° C. Thereafter, the gels were rinsed with distilled water, incubated in alkaline electrophoresis buffer for 30 min at 37° C., and electrophoresed at 300 mA for 60 min. The gels were subsequently rinsed with distilled water and placed in 1 M ammonium acetate for 30 min. They were soaked in 100% ethanol for 2 h, dried overnight, and subsequently stained with SYBR Gold ( 1/10000 dilution of stock supplied from Molecular Probes, Eugene, Oreg.) for 20 min. Comets were visualized at 330× magnification and DNA damage was quantitated using the Tail Moment parameter (i.e., the distance between the barycenter of the head and the tail of the comet multiplied by the percentage of DNA within the tail of the comet). A minimum of 50 cell comets were analyzed for each sample, using ALKOMET version 3.1 image analysis software, and values are averages of tail moments for the entire cell population per sample.

EGFR [5] = target: T1, EGFR; test: Reverse EGFR autophosphorylation (reversibility) assay in A431 cells; format: cell-based; conditions: A431, 30 μM, 90 min
Protocol: To test this hypothesis, the reversibility assay (40, 41) was used, according to which the cells are treated with the drug for 90 min after which the culture medium is repeatedly removed and replaced 3 times, followed by the measurement of EGFR autophosphorylation.
A431 cells were grown to confluence in 6-well plates and then incubated in serum-free medium for 18 h (41). Duplicate sets of cells were then treated with 30 μM of each compound for 90 min. One set of cells was then stimulated with EGF (100 ng/ml) for 10 min and extracts were made as described under the Western blotting procedure above. The other set of cells was washed free of each compound with warmed serum-free media and incubated for 2 h. Thereafter, the cells were washed, incubated for another 2 h, washed again, and then incubated for a further 4 h. This set of cells was then stimulated with EGF and extracts were prepared as for the first set.

NIH3T3HER14 cells = test: Growth factor-stimulated proliferation in NIH3T3HER14 cells (SRB); format: cell-based, mouse; conditions: NIH3T3HER14, 72 h
Protocol: To study the effect of our compounds on growth factors stimulated proliferation, cells were grown to 70% confluence in 48-well plates and washed twice with PBS, after which they were exposed to serum-free medium for 18 h. The cells were then exposed to each drug and growth factors (EGF, TGFα, PDGF or serum) for 72 h and cell growth measured using the sulforhodamine B (SRB) assay (33). Briefly, following drug treatment, cells were fixed using 50 μl of cold trichloroacetic acid (50%) for 60 min at 4° C., washed five times with tap water, and stained for 30 min at room temperature with SRB (0.4%) dissolved in acetic acid (0.5%). The plates were rinsed five times with 1% acetic acid and allowed to air dry. […] Each point represents the average of at least two independent experiments run in triplicate.

A431 cells [6] = test: SRB growth inhibition assay in A431 cells; format: cell-based, human
Protocol: All growth inhibitory activities were evaluated using the SRB assay (33). Briefly, following drug treatment, cells were fixed using 50 μL of cold trichloroacetic acid (50%) for 60 min at 4° C., washed five times with tap water, and stained for 30 min at room temperature with SRB (0.4%) dissolved in acetic acid (0.5%). The plates were rinsed five times with 1% acetic acid and allowed to air dry. The resulting colored residue was dissolved in 200 μL of Tris base (10 mM), and the optical density read for each well at 540 nm using a Bio-Rad microplate reader (model 2550). […]
Cell monolayers were continuously exposed to different concentrations of each drug for 72 h. Under short exposure, they were treated with each drug for 2 h and allowed to recover for 72 h in drug-free medium.
To study the reversibility of the antiproliferative effects of our compounds, cells were grown to 70% confluence in 96-well plates and subsequently washed twice with PBS, after which they were exposed to serum-free medium for 18 h. Under continuous exposure, the cells were exposed to different concentrations of each drug for 120 h. Under short exposure, they were exposed to each drug for 2 h, after which they were allowed to recover for 120 h in drug free medium. Growth inhibitory activities were evaluated using the SRB assay as described above.

[7] = target: T2, cytoplasmic domain of the insulin receptor β subunit; conditions: read-out: IC50 insulin receptor (positive control); cited from earlier work
[8] = Degradation in serum-containing cell culture medium (UV, HPLC); format: in vitro ADME; conditions: bovine, serum-containing cell culture medium (RPMI with 10% serum); RPMI with 10% serum, 37° C.; read-out: half-life (t1/2) by UV spectrophotometry at 340 nm
Protocol: Thereafter, proteins were precipitated by the addition of acetonitrile (3.5 ml) and the supernatant collected by centrifugation. […] The operating mode was isocratic and two solutions, “A” (50% acetonitrile) and “B” (50% water), were used with a 0.5 ml/min flow rate and a 5 μL injection volume. […] For the rapid quantitation of metabolite, a less polar acetonitrile-water (70:30) eluent was used.
The half-life was estimated by a one-phase exponential decay curve-fit method using the GraphPad software package (GraphPad Software, Inc., San Diego, Calif.).
The half-life of BJ2000 under physiological conditions was studied by UV-spectrophotometry. BJ2000 was dissolved in a minimum volume of DMSO, diluted with RPMI-1640 supplemented with 10% FBS, and absorbencies read at 340 nm in a UV cell maintained at 37° C. with a circulating water bath. The half-life was estimated by a one-phase exponential decay curve-fit method, using the GraphPad software package (GraphPad software, Inc., San Diego, Calif., USA).
Proteins were thereafter precipitated by the addition of acetonitrile (3.5 ml), and the supernatant collected by centrifugation. […] HPLC analyses were performed on a Hewlett Packard 1090 liquid chromatograph, using a Waters C4 15-μm 300×3.9-mm reverse phase column to characterize and quantitate the products resulting from the degradation of BJ2000. […] The peaks were detected at 250 nm.

A431 cells [9] = test: Colony forming (clonogenic) assay in A431 cells; conditions: Homo sapiens, A-431, 144 h, read-out: IC50 colony formation
EGFR [10] = target: T1, EGFR; test: cell-based
Protocol: The inhibition of receptor autophosphorylation in viable cells was determined by anti-phosphotyrosine Western Blots. A431 cells were pre-incubated overnight for 24 h at 37° C. in a 6-well plate (1×10^6) with 0.1% serum, after which they were exposed to a range of doses for each drug for 2 h and subsequently treated with 50 ng/mL EGF for 30 min at 37° C. The cells were thereafter washed with PBS and re-suspended in cold lysis buffer [50 mM Tris-HCl pH 7.5; 150 mM NaCl; 1% NP40, 1 mM EDTA; 5 mM NaF; 1 mM Na3VO4; protease inhibitor tablet (Roche Biochemicals, Laval, Canada)]. The lysates were kept on ice for 30 min and collected by centrifugation at 10 000 rpm for 20 min at 4° C. The protein concentrations were determined against a standardized control using the Bio-Rad protein assay kit (Bio-Rad Laboratories, Hercules, Calif.). […] Non-specific binding on the PVDF membrane was minimized with a blocking buffer containing nonfat dry milk (3%) in PBS. The membrane was blotted with primary antibodies [either antiphosphotyrosine antibody (UBI, Lake Placid, N.Y.) for the detection of phosphotyrosine, or anti-EGFR (Neomarkers, Fremont, Calif.) for the determination of corresponding receptor levels], and anti-β-tubulin (Neomarkers, Fremont, Calif.) for the detection of equal loading. Thereafter, blots were incubated with HRP-goat anti-mouse antibody (1:200 dilution; Bio-Rad Laboratories, Hercules, Calif.) and the bands visualized with an enhanced chemiluminescence system (Amersham Pharmacia Biotech, Buckinghamshire, UK). Band intensities were measured using the SynGene GeneTools software package (Cambridge, UK).
The inhibition of receptor autophosphorylation in viable cells was determined by anti-phosphotyrosine Western Blots. […] Protein concentrations were determined against a standardized control using the Bio-Rad protein assay kit (Bio-Rad Laboratories, Hercules, Calif.). […] Band intensities were measured using the SynGene GeneTools software package (Cambridge, UK).

[11] = test system: NIH3T3 and NIH3T3HER14 cells; test: MTT cytotoxicity assay in NIH3T3 / NIH3T3HER14; format: cell-based, mouse
Protocol: The cytotoxic effects of our compounds were evaluated using the 3-(4,5-dimethylthiazo-2-yl)-2,5-diphenyltetrazolium bromide (MTT) assay (42) with minor modifications. Briefly, cells were grown in 24-well plates and then exposed to the compounds for 96 h. MTT (50μl) of (5 mg/ml in sterile PBS) was added to 500 μl of media and the plates were incubated for 2-3 h at 37° C. […] Each point represents the average of at least two independent experiments run in duplicate.

[12] = Homo sapiens, A-431, read-out: IC50 growth inhibition
[13] = Homo sapiens, A-431, 72 h, 72 h continuous exposure, SRB, A431, read-out: IC50 growth inhibition
[14] = ELISA, PGT substrate, purified EGFR, ATP 20 μM, 8 min, read-out: IC50, inhibition of EGFR TK (competitive binding at ATP site)

T1 sequence (P00533 25-1210): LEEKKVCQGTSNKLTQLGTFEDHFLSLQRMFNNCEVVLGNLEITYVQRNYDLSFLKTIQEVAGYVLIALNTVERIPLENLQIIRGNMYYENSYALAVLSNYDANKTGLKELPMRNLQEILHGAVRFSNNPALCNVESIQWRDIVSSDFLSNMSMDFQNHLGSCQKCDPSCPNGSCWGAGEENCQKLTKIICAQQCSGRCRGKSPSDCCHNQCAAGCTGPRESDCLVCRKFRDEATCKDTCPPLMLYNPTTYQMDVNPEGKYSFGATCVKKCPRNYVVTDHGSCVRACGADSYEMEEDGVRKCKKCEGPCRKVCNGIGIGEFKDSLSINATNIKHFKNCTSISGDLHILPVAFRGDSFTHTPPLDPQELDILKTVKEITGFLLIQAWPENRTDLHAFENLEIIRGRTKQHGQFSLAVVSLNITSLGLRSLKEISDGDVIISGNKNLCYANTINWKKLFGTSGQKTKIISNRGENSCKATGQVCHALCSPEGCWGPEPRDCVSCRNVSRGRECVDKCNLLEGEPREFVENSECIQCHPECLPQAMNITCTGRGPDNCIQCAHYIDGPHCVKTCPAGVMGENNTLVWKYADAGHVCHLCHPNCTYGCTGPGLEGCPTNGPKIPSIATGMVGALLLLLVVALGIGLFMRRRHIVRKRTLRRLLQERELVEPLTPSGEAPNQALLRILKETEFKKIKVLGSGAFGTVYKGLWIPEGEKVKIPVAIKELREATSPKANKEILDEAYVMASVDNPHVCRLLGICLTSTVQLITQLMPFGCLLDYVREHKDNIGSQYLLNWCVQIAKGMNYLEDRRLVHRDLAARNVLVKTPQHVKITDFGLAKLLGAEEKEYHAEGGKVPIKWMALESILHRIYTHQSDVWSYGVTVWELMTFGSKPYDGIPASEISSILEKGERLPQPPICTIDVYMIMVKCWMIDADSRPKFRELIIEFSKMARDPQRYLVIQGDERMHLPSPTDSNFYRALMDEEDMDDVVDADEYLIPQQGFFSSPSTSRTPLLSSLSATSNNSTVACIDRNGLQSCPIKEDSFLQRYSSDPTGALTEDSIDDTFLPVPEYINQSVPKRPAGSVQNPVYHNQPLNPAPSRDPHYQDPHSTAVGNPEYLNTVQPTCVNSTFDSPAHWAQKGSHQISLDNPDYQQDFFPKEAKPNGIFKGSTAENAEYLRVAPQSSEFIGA
T2 sequence (P06213 980-1382 limits assumed): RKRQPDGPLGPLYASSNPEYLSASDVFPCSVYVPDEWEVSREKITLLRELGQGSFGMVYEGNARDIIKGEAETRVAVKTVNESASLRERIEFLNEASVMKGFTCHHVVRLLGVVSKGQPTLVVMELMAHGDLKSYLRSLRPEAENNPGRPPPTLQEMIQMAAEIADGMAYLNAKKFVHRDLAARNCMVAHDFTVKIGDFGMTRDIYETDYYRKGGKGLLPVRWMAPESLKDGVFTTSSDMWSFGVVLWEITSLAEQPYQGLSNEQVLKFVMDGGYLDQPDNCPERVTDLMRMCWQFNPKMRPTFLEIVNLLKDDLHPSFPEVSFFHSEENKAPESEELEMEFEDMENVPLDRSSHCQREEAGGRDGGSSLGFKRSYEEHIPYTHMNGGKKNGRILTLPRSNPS
T3 sequence (P12931 whole entry): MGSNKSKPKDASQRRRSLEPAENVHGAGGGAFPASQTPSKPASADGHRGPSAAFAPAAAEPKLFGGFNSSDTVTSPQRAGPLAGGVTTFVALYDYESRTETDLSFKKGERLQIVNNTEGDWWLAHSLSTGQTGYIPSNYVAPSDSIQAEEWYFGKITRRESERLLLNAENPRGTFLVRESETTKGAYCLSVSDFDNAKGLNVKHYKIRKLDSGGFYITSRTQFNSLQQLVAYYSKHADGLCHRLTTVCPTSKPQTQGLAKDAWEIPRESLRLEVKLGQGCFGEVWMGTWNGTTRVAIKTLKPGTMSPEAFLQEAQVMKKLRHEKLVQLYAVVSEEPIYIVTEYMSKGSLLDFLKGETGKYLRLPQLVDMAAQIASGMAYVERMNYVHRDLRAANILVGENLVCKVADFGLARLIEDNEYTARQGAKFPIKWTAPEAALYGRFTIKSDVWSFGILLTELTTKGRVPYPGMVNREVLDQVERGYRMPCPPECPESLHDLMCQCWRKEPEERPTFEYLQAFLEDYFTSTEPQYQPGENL

melting point: 150 to 151 °C (dec.)
SMILES: Cc1cccc(Nc2ncnc3ccc(N(C)C(=O)NCCCl)cc23)c1

SMILES: O=NN(CCCl)C(=O)NCCCl [BCNU, bis-chloroethyl-N-nitrosourea, reference compound]
IC50 (A431 cells [1]): 40 µM

IC50 (EGFR [2]; Table 1, means and SE's of two separate experiments, read-out: IC50 (μM), inhibition of EGFR tyrosine kinase activity): 0.071 ± 0.029 µM
SMILES: COCCNN=Nc1ccc2ncnc(Nc3cccc(Br)c3)c2c1 [D R1=MeOCH2CH2—]

IC50 (EGFR [2]): 0.196 ± 0.031 µM
SMILES: COCCNN=Nc1ccc2ncnc(Nc3cccc(C)c3)c2c1 [E R1=MeOCH2CH2—]

effect on c-src TK activity (human c-src): did not block c-src TK activity | EGF-dependent EGFR autophosphorylation immediately after drug exposure (EGFR [5]): completely suppressed | IC50 (A431 cells [6]; [12]): > 100 µM
SMILES: Nc1ccc2ncnc(Nc3cccc(Cl)c3)c2c1 [FD105]
effect on insulin receptor TK [3]: nor did it exert any effect on insulin receptor TK | DNA damage (comet tail moment) (A431 cells [4]): non-DNA damaging agent | concentration giving 100% growth inhibition (NIH3T3HER14 cells; EGF or TGFα-induced proliferation): 1 µM | concentration giving 100% inhibition (NIH3T3HER14 cells; PDGF-stimulated growth): approximately 30 μM

IC50 (EGFR [2]): ~0.05 µM
SMILES: CNc1ccc2ncnc(Nc3cccc(C)c3)c2c1 [FD110]

SMILES: Cc1cccc(Nc2ncnc3ccc(N(C)C(=O)N(CCCl)N=O)cc23)c1 [FD137, N-(2-Chloroethyl)-N′-methyl-N′-(4-m-tolylaminoquinazolin-6-yl)-N-nitrosourea]
level of DNA lesions compared with BCNU (A431 cells [4]; A431): lower levels of DNA lesions than BCNU | DNA damage (comet tail moment) (A431 cells [4]): dose-dependent increase in DNA single strand breaks | fold more potent than BCNU (A431 cells [6]): 50 fold | melting point: 150 to 151 °C (dec.) | IC50 (A431 cells [1]): 0.8 µM

SMILES: CC(=O)OCOC(c1ccc2ccccc2c1)P(=O)(OCOC(C)=O)OCOC(C)=O (centres unmarked) [HNPMA-(AM)3]
IC50 [7]: 100 µM

IC50 (A431 cells [6]; 72 h continuous exposure, SRB, A431, read-out: IC50 growth inhibition): ~30 µM | IC50 (A431 cells [6]; Homo sapiens, A-431, 2 h exposure then 72 h recovery in drug-free medium, SRB, A431, read-out: IC50 growth inhibition): 36 µM | IC50 (A431 cells [6]; [13]): 36 µM | half-life [8]: ~30 min | IC50 (A431 cells [9]): 4 µM
SMILES: CNN=Nc1ccc2ncnc(Nc3cccc(C)c3)c2c1 [SMA41]
concentration range with significant comet tail moment / DNA damage (A431 cells [4]; A431, 30 min and 2 h exposure): 6 to 25 µM and 6.25 to 25 µM | DNA damage (comet tail moment) (A431 cells [4]): capable of inducing DNA damage in a dose-dependent manner | concentration range with nuclear condensation (A431 cells [4]; A431, 2 h): 25 to 100 µM

SMILES: Cc1cccc(Nc2ncnc3ccc(N)cc23)c1 [SMA52, 6-amino-4-[(m-tolyl)amino]quinazoline]
DNA damage (comet tail moment) (A431 cells [4]): does not possess DNA damaging properties | IC50 (EGFR [2]): 1.02 µM | IC50 (EGFR [2]; [14]): 1 µM | IC50 (A431 cells [6]; Homo sapiens, A-431, 72 h, read-out: IC50 growth inhibition): 59 µM | IC50 (A431 cells [6]; [12]): > 100 µM | IC50 (EGFR [10]): 8.44 µM | IC50 (A431 cells [9]): 3.7 µM

IC50 (EGFR [2]; [14]): > 100 µM | IC50 (A431 cells [6]; [13]): 366 µM | IC50 (EGFR [10]): > 100 µM
SMILES: Cn1nnc2c(C(N)=O)ncn2c1=O [TEM, temozolomide, reference compound]
antiproliferative activity under short and continuous exposure (A431 cells [6]; 2 h + 72 h recovery and 72 h continuous, A431): inactive | fold greater cytotoxic activity in EGFR transfectant NIH3T3HER14 than in parental NIH3T3 [11]: no differential cytotoxicity
